From publication PMC10580953, “In vitro and intracellular activities of novel thiopeptide derivatives against macrolide-susceptible and macrolide-resistant Mycobacterium avium complex” (Microbiology Spectrum, 2023)
Values after ≈ are worked out from the molar mass of the structure shown. “Also recorded” adds a separate entry of the source.

Legend:
M. intracellulare = assay: MIC by resazurin microtiter assay (REMA), M. intracellulare strains
Protocol: (§4) Reference strains were purchased from the American Type Culture Collection (ATCC; Manassas, VA, USA). […] All strains were cultivated in Middlebrook 7H9 liquid broth (Difco Laboratories, Detroit, MI) supplemented with 10% oleic acid-albumin-dextrose-catalase (OADC) or plated on Middlebrook 7H10 agar (Difco Laboratories) with 10% OADC enrichment at 37°C.
(§5) The MICs of all the reagents were determined using the REMA method based on guidelines by the Clinical and Laboratory Standards Institute ([57]). […] The cultures were diluted to an OD600 = 0.001 in 7H9 broth with 5% OADC. […] Two controls (broth only and bacteria only) were incubated to check for other contamination (broth only) and the growth of tested bacteria (bacteria only).

[1] = system: macrolide-resistant M. intracellulare; assay: MIC by REMA, macrolide-resistant M. intracellulare strains; details: Mycobacterium intracellulare
Description: (§6) Reference strains were purchased from the American Type Culture Collection (ATCC; Manassas, VA, USA). All clinical MAC isolates, including macrolide-susceptible and macrolide-resistant strains, were kindly provided by Samsung Medical Center (SMC; Seoul, South Korea) and Asan Medical Center (AMC; Seoul, South Korea). All strains were cultivated in Middlebrook 7H9 liquid broth (Difco Laboratories, Detroit, MI) supplemented with 10% oleic acid-albumin-dextrose-catalase (OADC) or plated on Middlebrook 7H10 agar (Difco Laboratories) with 10% OADC enrichment at 37°C.
as §5
(§7) PCR amplification and sequencing for CLR were based on 23S rRNA. The primers and PCR conditions were as reported previously ([59]). PCR was carried out in a final volume of 20 µL and contained EzPCR Basic 5 × premix (ELPIS, Daejeon, South Korea), 13 µL of sterile dH2O, 1 µL of each forward and reverse primer, and 1 µL of template DNA. The PCR products were run on 1% agarose gels and purified using a NEXprep Gel/PCR Purification Mini Kit (Geneslabs, Gyeonggi, South Korea) for DNA cleanup. Purified PCR products were sequenced by Sanger sequencing in Bionics (Seoul, South Korea) with their gene-specific forward and reverse primers. Sequences obtained from Bionics were subjected to BLAST searches to compare nucleotide sequences with reference strains.

[2] = system: macrolide-resistant M. avium; assay: MIC by REMA, macrolide-resistant M. avium strains
Description: as §6, §5, §7

MAC in murine BMDMs = assay: Intracellular anti-MAC activity in infected BMDMs, summary statements for MAC; type: cell-based, Mycobacterium avium complex; details: for intracellular activity in BMDMs infected with macrolide-resistant MAC clinical isolates: 10 µg/mL, 72 h (Fig. 5 and 6)
Protocol: (§1) BMDMs were obtained from 6-week-old female BALB/c mice. Bone marrow cells were differentiated into BMDMs using Dulbecco’s Modified Eagle Medium (Biowest) supplemented with 10% fetal bovine serum (Biowest) and 10% L929 cell supernatant as previously described ([58]).
(§2) BMDMs were seeded at 4 × 10^5 cells/mL in a 48-well plate and incubated overnight at 37°C. MAC strains were infected at a multiplicity of infection of 3 for 4 h and washed with DPBS twice. The cells were then cultured in the absence or presence of drugs in triplicate wells for 72 h. After incubation, the cells were lysed with 0.05% Triton X-100, and the cell lysates serially diluted with DPBS were spotted on 7H10 agar plates supplemented with OADC to count the number of viable bacteria. Colonies were enumerated after 7 d of incubation at 37°C, and the values are reported as the mean CFU ± standard deviation (SD) per mL. All experiments were repeated at least three times independently.

M. avium = assay: MIC by resazurin microtiter assay (REMA), M. avium strains
Protocol: as §4, §5

[3] = system: M. intracellulare ATCC 13950; details: for drug-drug interaction with CLR: synergism FICI ≤0.5, additive 0.5 < FICI ≤ 1, indifferent 1 < FICI ≤ 4, antagonistic FICI >4
Protocol: (§3) To evaluate the efficacy of the combination of agent A and agent B, a fractional inhibitory concentration (FIC) index was calculated as follows: FICI = (FIC of agent A) + (FIC of agent B) = (MIC of agent A in combination/MIC of agent A alone) + (MIC of agent B in combination/MIC of agent B alone). Synergism is defined as FICI ≤0.5, additive as 0.5 < FICI ≤ 1, indifferent as 1 < FICI ≤ 4, and antagonistic as FICI >4. The cultured bacteria were diluted to a 0.005 OD600 in 7H9 broth containing 5% OADC, and the antimicrobial agents were prepared by serial dilutions to a final concentration of 0.03–4 μg/mL. For the evaluation of inhibitory concentrations, the plates were incubated at 37°C for 5–7 d. Then, MIC values were assessed by REMA, and the FICI was calculated.

M. avium ATCC 700898 = details: for drug-drug interaction with CLR: synergism FICI ≤0.5, additive 0.5 < FICI ≤ 1, indifferent 1 < FICI ≤ 4, antagonistic FICI >4
Protocol: as §3

[4] = Aqueous kinetic solubility; type: physicochemical; details: for solubility at 2 h: aqueous buffer, kinetic from dmso stock, free form, deionized water pH 7.4, 1% DMSO; for Fold increase, Free form: solubility of free form compared to MP2; for solubility: thermodynamic from solid, HCl salt in deionized water
Protocol: The aqueous kinetic solubility was determined by preparing a 20 mM DMSO stock solution of test compounds and incubating an aliquot of this solution in deionized water at pH 7.4 to set a 1% final concentration of DMSO. In the case of HCl salt compounds, 1–2 mg of compound was weighed and dissolved in deionized water to yield an approximately 10 mg/mL solution. After initial mixing using brief vortexing and sonication, samples were equilibrated by shaking for 2 h at room temperature. Suspensions or solutions with visible particles were filtered through 0.22 µm PVDF membrane filters. The dissolved drug concentration was analyzed using UPLC-MS. To determine the solubility of the HCl salt, 1 mg of compound was weighed into a 2 mL glass tube, and a fixed volume of deionized water was added to yield an approximately 10 mg/mL solution. The solution was equilibrated by shaking for 24 h at room temperature. After equilibration, the vials were visually examined. If a clear solution was obtained, solubility was reported as >mg/mL.

[5] = system: macrolide-resistant M. avium clinical isolates in BMDMs; assay: Intracellular activity in BMDMs, macrolide-resistant M. avium clinical isolates; type: cell-based, Mycobacterium avium; details: five macrolide-resistant M. avium clinical isolates, 10 µg/mL, 72 h (Fig. 5)
Protocol: as §1, §2

M. avium in murine BMDMs = assay: Intracellular anti-MAC activity in infected BMDMs, M. avium; type: cell-based, Mycobacterium avium
Protocol: as §1, §2

[6] = Mycobacterium intracellulare, ATCC13950, M. intracellulare (ATCC 13950), reference strain
[7] = Mycobacterium intracellulare, M. intracellulare (SMC#8)
[8] = Mycobacterium intracellulare, M. intracellulare (SMC#12)
[9] = M. intracellulare (AMC#24), 23S rRNA A2058/A2059 G/A
[10] = M. intracellulare (SMC#104), 23S rRNA A2058/A2059 G/A
[11] = M. intracellulare (SMC#400), 23S rRNA A2058/A2059 C/A
[12] = M. intracellulare (SMC#414), 23S rRNA A2058/A2059 A/G
[13] = M. intracellulare (SMC#418), 23S rRNA A2058/A2059 G/A
[14] = Mycobacterium avium, M. avium (SMC#420), 23S rRNA A2058/A2059 C/A
[15] = Mycobacterium avium, M. avium (SMC#422), 23S rRNA A2058/A2059 A/G
[16] = Mycobacterium avium, M. avium (SMC#1213), 23S rRNA A2058/A2059 T/A
[17] = Mycobacterium avium, ATCC700898
[18] = Mycobacterium avium, M. avium (SMC#6)
[19] = Mycobacterium avium, M. avium (SMC#1637)
[20] = M. avium (SMC#1216), 23S rRNA A2058/A2059 C/A
[21] = combination with CLR, synergism FICI ≤0.5, additive 0.5 < FICI ≤ 1

Compound	MIC (M. intracellulare; M. intracellulare (SMC#9)) [µg/mL]	MIC (M. intracellulare; M. intracellulare (SMC#699)) [µg/mL]	MIC (M. intracellulare; M. intracellulare (SMC#831)) [µg/mL]	MIC (M. intracellulare; M. intracellulare (SMC#2087)) [µg/mL]	MIC (M. intracellulare; Mycobacterium intracellulare) [µg/mL]	MIC (M. intracellulare; [6]) [µg/mL]	MIC (M. intracellulare; [7]) [µg/mL]	MIC (M. intracellulare; [8]) [µg/mL]	MIC [1, 9] [µg/mL]	MIC [1, 10] [µg/mL]	MIC [1, 11] [µg/mL]	MIC [1, 12] [µg/mL]	MIC [2, 14] [µg/mL]	MIC [2, 15] [µg/mL]	MIC [2, 16] [µg/mL]	intracellular activity in BMDMs infected with macrolide-resistant MAC clinical isolates (MAC in murine BMDMs)	MIC (M. avium; [18]) [µg/mL]	MIC (M. avium; [19]) [µg/mL]	drug-drug interaction with CLR [3]	drug-drug interaction with CLR (M. avium ATCC 700898)	also measured
CC[C@H]1OC(=O)[C@H](C)[C@@H](O[C@H]2C[C@@](C)(OC)[C@@H](O)[C@H](C)O2)[C@H](C)[C@@H](O[C@@H]2O[C@H](C)C[C@H](N(C)C)[C@H]2O)[C@](C)(OC)C[C@@H](C)C(=O)[C@H](C)[C@@H](O)[C@]1(C)O [CLR, clarithromycin, reference compound]	0.125 (≈ 0.167 µM)	0.125 (≈ 0.167 µM)	0.125 (≈ 0.167 µM)	0.125 (≈ 0.167 µM)	0.125 (≈ 0.167 µM)	0.25 (≈ 0.334 µM)	0.25 (≈ 0.334 µM)	0.25 (≈ 0.334 µM)	> 64	> 64	> 64	> 64	> 64	> 64	> 64	resistance	0.125 (≈ 0.167 µM)	0.125 (≈ 0.167 µM)			MIC [1, 13]: > 64 µg/mL; MIC ([2]; Mycobacterium avium, M. avium (SMC#417), 23S rRNA A2058/A2059 C/A): > 64 µg/mL; MIC ([2]; Mycobacterium avium, M. avium (SMC#1216), 23S rRNA A2058/A2059 C/A): > 64 µg/mL; MIC (M. avium; M. avium (SMC#7)): 0.5 µg/mL (≈ 0.668 µM); MIC (M. avium; Mycobacterium avium): 0.5 µg/mL (≈ 0.668 µM); MIC (M. avium; [17]): 0.5 µg/mL (≈ 0.668 µM)
COc1nc2ccc(Br)cc2cc1[C@@H](c1ccccc1)[C@@](O)(CCN(C)C)c1cccc2ccccc12 [bedaquiline, reference compound]																			synergistic effects were not observed	synergistic effects were not observed	
C/C=C1\NC(=O)[C@H]([C@@H](C)O)NC(=O)c2csc(n2)-c2ccc(-c3nc(-c4nc(C(=O)NC5(C(=O)NCCN6CCN(C[C@@H](O)CO)CC6)CC5)cs4)cs3)nc2-c2csc(n2)[C@H]([C@@H](C)O)NC(=O)c2csc(n2)[C@H](C(C)C)NC(=O)c2csc1n2 [AJ-206]			0.125 (≈ 0.0982 µM)	0.125 (≈ 0.0982 µM)	0.125 (≈ 0.0982 µM)	0.5 (≈ 0.393 µM)	0.5 (≈ 0.393 µM)	0.5 (≈ 0.393 µM)	0.125 (≈ 0.0982 µM)	0.125 (≈ 0.0982 µM)		0.125 (≈ 0.0982 µM)	0.5 (≈ 0.393 µM)	1 (≈ 0.786 µM)	1 (≈ 0.786 µM)	significant decrease in CFUs	0.125 (≈ 0.0982 µM)	0.125 (≈ 0.0982 µM)	relatively weak but synergistic effect; also recorded: Synergistic effects	strongest synergistic effect; also recorded: Synergistic effects	MIC (M. intracellulare; Mycobacterium intracellulare, M. intracellulare (SMC#7)): 0.25 µg/mL (≈ 0.196 µM); MIC (M. intracellulare; Mycobacterium intracellulare, M. intracellulare (SMC#699)): 0.5 µg/mL (≈ 0.393 µM); solubility at 2 h [4]: 102 µg/mL (≈ 80.2 µM); Fold increase, Free form [4]: ×1,457 fold; solubility [4]: > 10000 µg/mL; MIC [2, 20]: 0.125 µg/mL (≈ 0.0982 µM); MIC ([2]; Mycobacterium avium): 0.125 µg/mL (≈ 0.0982 µM); intracellular bacterial growth in BMDMs [5]: notably inhibited intracellular bacterial growth; intracellular growth of MAC in BMDMs (MAC in murine BMDMs; MAC-infected BMDMs, 72 h (Fig. 2)): remarkably inhibited the intracellular growth of MAC to a similar degree as CLR; also recorded: significantly reduced the number of MAC CFUs inside macrophages; MIC (M. avium; M. avium (SMC#7)): 0.5 µg/mL (≈ 0.393 µM); MIC (M. avium; Mycobacterium avium): 0.5 µg/mL (≈ 0.393 µM); MIC (M. avium; [17]): 0.5 µg/mL (≈ 0.393 µM)
C/C=C1\NC(=O)[C@H]([C@@H](C)O)NC(=O)c2csc(n2)-c2ccc(-c3nc(-c4nc(C(=O)NC5(C(=O)NCCCN6C(=O)CNC6=O)CC5)cs4)cs3)nc2-c2csc(n2)[C@H]([C@@H](C)O)NC(=O)c2csc(n2)[C@H](C(C)C)NC(=O)c2csc1n2 [AJ-039]	0.125 (≈ 0.102 µM)	0.125 (≈ 0.102 µM)	0.125 (≈ 0.102 µM)	0.125 (≈ 0.102 µM)	0.125 (≈ 0.102 µM)				0.125 (≈ 0.102 µM)	0.125 (≈ 0.102 µM)	0.125 (≈ 0.102 µM)	0.125 (≈ 0.102 µM)	0.5 (≈ 0.408 µM)	4 (≈ 3.26 µM)	2 (≈ 1.63 µM)	relatively little activity	0.125 (≈ 0.102 µM)	0.125 (≈ 0.102 µM)	additive effect	additive effect	MIC (M. intracellulare; M. intracellulare (SMC#8)): 0.125 µg/mL (≈ 0.102 µM); MIC (M. intracellulare; M. intracellulare (SMC#12)): 0.125 µg/mL (≈ 0.102 µM); MIC (M. intracellulare; Mycobacterium intracellulare, ATCC13950): 0.125 µg/mL (≈ 0.102 µM); CFUs in BMDMs, drug alone (M. avium in murine BMDMs; M. avium SMC#7 (Fig. 2C)): did not reduce CFUs; intracellular activity of combination with CLR compared to CLR alone (M. avium in murine BMDMs; M. avium SMC#7, each drug 10 µg/mL, 72 h): not significant compared to that of CLR alone; solubility at 2 h [4]: 2.98 µg/mL (≈ 2.43 µM); Fold increase, HCl salt ([4]; solubility of HCl salt compared to MP2): ×360 fold; Fold increase, Free form [4]: ×43 fold; solubility [4]: 25.2 µg/mL; MIC [1, 13]: 0.125 µg/mL (≈ 0.102 µM); MIC [2, 20]: 0.125 µg/mL (≈ 0.102 µM); MIC ([2]; Mycobacterium avium): 0.125 µg/mL (≈ 0.102 µM); FICI [3, 21]: 0.56; FICI (M. avium ATCC 700898; [21]): 0.54; MIC (M. avium; Mycobacterium avium, ATCC700898, M. avium (ATCC 700898), reference strain): 0.125 µg/mL (≈ 0.102 µM); MIC (M. avium; Mycobacterium avium, M. avium (CP000479.1), reference strain): 0.125 µg/mL (≈ 0.102 µM); MIC (M. avium; Mycobacterium avium, M. avium (SMC#7)): 0.125 µg/mL (≈ 0.102 µM)
